Experimental data published in patent US7709454B2, “Methods and compositions for inhibiting tumorigenesis” (New York University, priority 1997, dated 2010).

Experiments:
[1] = system: Nude Harlan Sprague-Dawley Mice/lung (A-549, Calu-1) tumors; conditions: 70 mg/kg/d; cited from earlier work
[2] = system: Proliferating melanocytes from human foreskin; assay: BrdU incorporation in proliferating melanocytes; format: cell-based
Method: (§1) Human foreskin melanocytes (Promocell) were grown in serum-free M2 medium (Promocell). WM-115, SK-MEL-2, SK-MEL-5, MeWo and COS7 cell lines (ATCC) were grown as specified. Tumors were chopped, incubated in E-MEM (Sigma) containing collagenase A (300 U/ml, Worthington) and hyaluronidase (100 U/ml, Sigma), mechanically dissociated and plated in E-MEM with 10% FBS, 1 mM sodium pyruvate (GIBCO) and 1 ng/ml EGF (GIBCO). […] All melanoma samples and BCC were obtained following approved protocols.
(§2) Commercial N-SHH (R&D Systems) was used at 100 nM. 5E1 anti-SHH blocking antibody (Hybridoma Bank, University of Iowa) was used at 10 μg/ml. Forskolin (FK) and 1,9-dideoxyforskolin (ddFK; Sigma) were used at 50 μM. […] MEK-1 (U0126; Promega), EGFR (AG1478; Biosource) and AKT (SH6; Alexis corporation) inhibitors were used at 1, 10, and 40 μM, respectively, dissolved in DMSO. Drug treatments were for 48 h in 2.5% serum. BrdU (Sigma) was pulsed at 4 μg/ml for 2 h before fixation followed by immunodetection with anti-BrdU antibodies (BD Biosciences). The number of viable cells was assessed by Trypan blue exclusion (Promega).

[3] = system: primary cultures Me-1 to Me-5 (melanoma metastases); assay: BrdU incorporation in melanoma primary cultures; format: cell-based, human; conditions: exogenous recombinant SHH ligand, 48 h; fraction of five primary cultures
Method: as §1, §2

[4] = system: GLI1, HIP and MITFM expression; assay: qPCR gene expression in proliferating melanocytes after SHH; format: cell-based, human; conditions: SHH treatment, 8 h, qPCR normalized to GAPDH
Method: (§3) Real-time quantitative PCR amplifications with different primers (Suppl. Materials) were carried out at 60° C. on an Opticon machine (MJ Research) using iQ™ SYBR Green supermix (Biorad) and values calculated using the standard curve method.

[5] = system: WM115, SK-MEL-2, SK-MEL-5 and MeWo cell lines; assay: BrdU incorporation in melanoma cell lines; format: cell-based, human
Method: as §1, §2

[6] = system: GLI1 transcriptional activity; assay: GLI luciferase reporter assay (7 GLI binding site reporter) in COS7 cells; format: cell-based, monkey
[7] = system: NRAS^Q61K mouse melanoma primary cultures; assay: BrdU incorporation in primary cultures of Tyr-NRAS^Q61K; Ink4a−/− mouse melanomas; format: cell-based; conditions: 10 μM
Method: WM-115, SK-MEL-2 and COS7 cell lines (ATCC) were grown according to the specifications of the provider. The primary Me-3 melanoma (Stecca, B. et al. Melanocyte proliferation and melanoma growth, recurrence and metastasis require sustained SONIC HEDGEHOG-GLI signaling. Submitted. (2006)) was grown in E-MEM with 10% FBS (Hyclone), 1 mM sodium pyruvate (GIBCO) and 1 ng/ml EGF (GIBCO). Proliferating human melanocytes from foreskin (Promocell) were grown in M2 media (Promocell). Melanomas from ±6 month-old Tyr→NRAS^Q61K; Ink4a^−/− mice on a light coat color Dct^−/− background^13 were collected from the skin and lymph nodes. Tumors were dissociated and grown in E-MEM with 10% FBS, 1 mM sodium pyruvate (GIBCO) and 1 ng/ml EGF (GIBCO). Mouse embryonic fibroblasts (MEFs) were prepared from E14.5 Swiss Webster mouse embryos and grown in DMEM with 10% FBS.
Forskolin (FK) and 1,9-dideoxyforskolin (ddFK; Sigma) were used at 50 μM. MEK-1 (U0126; Promega), and AKT (SH6; Alexis corporation) inhibitors were used at 1 and 40 μM, respectively, dissolved in DMSO. U0126 and SH6 were used for 1 h, 48 h post-transfection. Leptomycin B (LMB; Sigma) was used at 5 nM for 6 h, 48 h post-transfection. BrdU (Sigma) was pulsed at 4 μg/ml for 2 h before fixation followed by immunodetection with anti-BrdU antibodies (BD Biosciences). The number of viable cells was assessed by Trypan blue exclusion (Promega). […]

[8] = system: HRAS^V12G or NRAS^Q61K transfected WM-115 and SK-Mel2 cells; assay: oncogenic RAS-transfection enhanced BrdU incorporation (Example 2); format: cell-based, human
Method: Forskolin (FK) and 1,9-dideoxyforskolin (ddFK; Sigma) were used at 50 μM. MEK-1 (U0126; Promega), and AKT (SH6; Alexis corporation) inhibitors were used at 1 and 40 μM, respectively, dissolved in DMSO. U0126 and SH6 were used for 1 h, 48 h post-transfection. Leptomycin B (LMB; Sigma) was used at 5 nM for 6 h, 48 h post-transfection. BrdU (Sigma) was pulsed at 4 μg/ml for 2 h before fixation followed by immunodetection with anti-BrdU antibodies (BD Biosciences). The number of viable cells was assessed by Trypan blue exclusion (Promega). […] (SEQ ID NO: 57) (target-validated from Ambion). […] SEQ ID NO: 58) (Sanchez, P. et al. Inhibition of prostate cancer proliferation by interference with SONIC HEDGEHOG-GLI1 signaling. Proc. Natl. Acad. Sci. USA. 101, 12561-12566 (2004)). siRNA transfections (0.2 μM) were performed with Oligofectamine (Invitrogen) for 48 h.
Cells were transfected (3 μg/p35 plate) with myc-tagged full-length CMV expression vectors with FUGENE (Roche). Transfections were at equimolar amounts unless otherwise specified with combinations of pCS2-Myc-tagged human GLI1, GLI3, GLI3R (GLI3C′ΔClaI), frog Gli2R (Gli2C′) (Ruiz i Altaba, A. Gli proteins encode context-dependent positive and negative functions: implications for development and disease. Development 126, 3205-3216 (1999), pCMV-HA-tagged GLI1 (ref. 20), HRAS^V12G (from A. Pellicer), NRAS^Q61K (Ackermann, J. et al. Metastasizing melanoma formation caused by expression of activated N-RasQ61K on an INK4a-deficient background. Cancer Res. 65, 4005-4011 (2005)), activated (myristoylated) myc-tagged AKT1 (Upstate), activated MEK1 (p45MAPKK^S222D; from J. Pouyssegur), Myc-tagged SUFUH (Kogerman, P. et al. Mammalian suppressor-of-fused modulates nuclear-cytoplasmic shuttling of Gli-1. Nat Cell Biol. 1, 312-319 (1999)), and pCMV-eGFP or pCMV-lacZ.

[9] = system: WM-115 subcutaneous tumors; assay: subcutaneous WM-115 melanoma xenografts in nude mice; format: in vivo, mouse; conditions: n=2 treated vs n=2 carrier
Method: (§5) 5×10^5 MeWo/LacZ, WM-115 or 10^6 primary Me-3 melanoma cells were inoculated subcutaneously (s.c.) at two sides per adult male (NMRI-nu) nude mouse and the tumors were measured daily. […] For metastasis studies, 1×10^6 Mewo/LacZ cells were injected into the tail vein (i.v.) of adult male nude mice. […] At the end of the treatment the lungs were dissected and stained with XGal.

[10] = system: human melanoma primary cultures and cell lines; assay: BrdU incorporation in melanoma primary cultures and cell lines; format: cell-based
Method: as §1, §2

[11] = system: p-ERK, p-AKT; assay: levels of p-ERK or p-AKT in melanoma cells; format: cell-based, human; conditions: cyclopamine treatment
[12] = system: GLI1, PTCH1, BMI1, FOXM1, MITFM expression; assay: qPCR gene expression in melanoma cultures; format: cell-based, human
Method: as §3, §2

[13] = system: WM115 cells; assay: BrdU incorporation, MEK inhibitor plus cyclopamine; format: cell-based, human; conditions: 5 μM cyclopamine plus 1 μM U0126, 48 hours
Method: (§4) Cell proliferation was assessed after incubation with BrdU as described.

[14] = system: MeWo/LacZ melanomas; assay: subcutaneous MeWo/LacZ melanoma xenografts in nude mice; format: in vivo, mouse
Method: as §5

[15] = system: WM-115, Me-3 and MeWo; assay: long-term cyclopamine treatment and recovery of cultures; format: cell-based, human; conditions: ten days, drug-containing media anew every 2 days
[16] = system: Mewo cells; assay: BrdU incorporation, AKT inhibitor plus cyclopamine; format: cell-based, human; conditions: 5 μM cyclopamine plus 20 μM SH6, 48 hours
Method: as §4

[17] = system: human cancer cells; conditions: cited from earlier work
[18] = system: ras-transformed rat kidney cell; conditions: cited from earlier work
[19] = system: EJ-1 human bladder carcinoma; conditions: in vivo; cited from earlier work
[20] = system: GLI1-transfected WM-115, SK-MEL-2 and SK-MEL-5; assay: GLI1-transfection enhanced BrdU incorporation, treatment with inhibitors; format: cell-based, human; conditions: 48 h treatment
Method: as §2

[21] = system: Nude mice/HIG3T3; conditions: nude mice transplanted with activated H-Ras-transformed HIG3T3 cells; cited from earlier work

For `CC(C)C[C@H](NC(=O)c1ccc(NC[C@@H](N)CS)cc1-c1cccc2ccccc12)C(=O)O` [GGTI-297], the “GROWTH INHIBITION” value [1] is listed as 56%-70%.
With “SHH: Commercial N-SHH (R&D Systems), recombinant SHH ligand” the increase in proliferation ([2]; recombinant SHH ligand, 48 h, over PBS) was “⅓”, the “primary cultures with increased BrdU incorporation above a basal level (10%)” value [3] was “⅘” and the “induction of GLI1 expression” value [4] was 2-3 fold. The “induction of HIP expression” value [4] was 2-3 fold, the “induction of MITFM expression” value [4] was 6 fold and the “cell lines with increased BrdU incorporation above a basal level (10%)” value ([5]; exogenous recombinant SHH ligand, 48 h, fraction of four cell lines) was “¾”.
In the case of `CCC(=C/[C@H](C)C/C=C/C(C)=C/[C@@H](C)C(=O)[C@@H](C)[C@H](O)[C@@H](C)C/C(C)=C/C(=O)O)/C=C/[C@@H]1OC(=O)C=C[C@@H]1C` [LMB], the “increase of GLI1-induced luciferase activity” value ([6]; GLI1 alone, 4 h treatment with LMB) is reported as roughly 3 fold and the “further increase in GLI activity” value ([6]; cells coexpressing GLI1 and NRAS^Q61K, LMB treatment) is reported as roughly 3 fold.
With `C[C@H]1CC[C@]2(NC1)O[C@H]1C[C@H]3[C@@H]4CC[C@H]5C[C@@H](O)CC[C@]5(C)[C@H]4CC[C@]3(C)[C@H]1[C@@H]2C` [tomatidine] the “proliferation of all 12 primary cultures” value ([7]; 48 h) was “no effect”.
In the case of `CC1=C2C[C@H]3[C@@H](CC=C4C[C@@H](O)CC[C@@]43C)[C@@H]2CC[C@]12O[C@@H]1C[C@H](C)CN[C@H]1[C@H]2C` [cyclopamine], the “inhibition of oncogenic RAS-enhanced BrdU incorporation” value ([8]; WM-115 and SK-Mel2) is reported as 65-75%, the “tumor response to cyclopamine treatment” value [9] is reported as “lead to their disappearance” and the “induction of the senescence marker SA-β-gal” value ([2]; cyclopamine treatment) is reported as “did not induce”. For the same molecule, the “number of doubly BrdU+/GFP+ cells” value ([7]; two primary cultures (1-PM2, 1-LNM5), GFP plus control plasmid) was “decreased the number of doubly BrdU+/GFP+ cells”, the “response of BrdU incorporation to cyclopamine” value ([10]; 24-48 h, dose-dependent, compared with tomatidine) was “all responded” and the “levels of p-ERK or p-AKT” value [11] was “did not alter”. For the same molecule, the GLI1 expression ([12]; 24-48 h cyclopamine treatment) was “decreased GLI1 expression”, the PTCH1 expression ([12]; cyclopamine 8 h, 3 primary cultures tested) was “inhibited PTCH1 expression” and the “Expression of BMI1, FOXM1 and MITFM” value ([12]; cyclopamine 8 h, primary cultures) was “repressed”. The “effect on BrdU incorporation of suboptimal cyclopamine combined with U0126” value [13] was “significantly effective”, the “recurrence after sustained treatment” value ([14]; 20 d treatment after tumor disappearance, 42 additional days) was “no recurrences” and the “tumor response to injection into the tumor” value ([14]; cyclodextrin-complexed cyclopamine injected into the tumor, tumors ±10 mm^3 or ±65 mm^3, vs cyclodextrin alone) was “rapid regression and disappearance of the tumors”. The “cured tumors containing small pockets of β-gal+ tumor cells or groups of single cells” value ([14]; five cured tumors taken 1-2 days after macroscopic disappearance) was “⅘”, the “time to tumor reappearance” value ([14]; from the end of 3 d and 10 d additional treatment after tumor disappearance) was 2 to 7 days and the “decrease in tumor volume” value ([14]; systemic treatment of large subcutaneous tumors (±65 mm^3), 16 days, vs carrier-only) was 33%. For the same molecule, the “BrdU incorporation after long-term treatment” value [15] was “inhibit all BrdU incorporation”, the “sensitivity of tumor-derived MeWo/lacZ cells to cyclopamine in vitro versus parental cells” value ([5]; cells from systemically treated tumors) was “same sensitivity” and the “effect on BrdU incorporation of suboptimal cyclopamine combined with SH6” value [16] was “significantly effective”.
For `Cc1ccc(S(=O)(=O)N[C@@H](Cc2ccccc2)C(=O)CCl)cc1` [TPCK], the anchorage-independent clonogenic growth [17] is given as “almost completely block” and the cell growth [18] is given as “potently inhibit”.
For `COC(=O)[C@H](CCSC)NC(=O)[C@H](/C=C\[C@@H](/C=C/[C@@H](N)CS)C(C)C)Cc1ccccc1` [B1086], the tumor growth [19] is listed as “inhibit tumor growth”.
In the case of `COc1cc2ncnc(Nc3cccc(Cl)c3)c2cc1OC` [AG1428], the “effect on GLI1-enhanced proliferation” value [20] is reported as “reversed” and the BrdU incorporation ([10]; 48 h, all four melanoma cell lines tested and Me-3) is reported as “decreased BrdU incorporation”.
In the case of `C=C[C@@]1(C)CC(=O)[C@]2(O)[C@@]3(C)[C@@H](O)CCC(C)(C)[C@@H]3[C@H](O)[C@H](OC(C)=O)[C@@]2(C)O1` [Forskolin], the “inhibition of oncogenic RAS-induced proliferation” value ([8]; SK-Mel2) is reported as 100% and the “inhibition of oncogenic RAS-induced proliferation” value ([8]; WM-115) is reported as roughly 80%.
For `C[C@H]([C@H](C/C=C/c1nc2ccccc2o1)c1ccc2c(c1)OCO2)N(Cc1ccc2ccccc2c1)C(=O)[C@H]1OC(C(=O)O)(C(=O)O)O[C@H]1C(=O)O` [J-104871], the tumor growth [21] is given as “suppressed tumor growth”.
